Results taken from PubChem BioAssay AID1963863 (Molecular Pharmacology Branch, DTP, NCI, 2024).

System: 931267-113-T-J1-PDC KRAS spheroid with HUVEC/MSC, viability
Assay: Anticancer human tumor 931267-113-T-J1-PDC patient-derived colon adenocarcinoma cell line growth inhibition [KRAS2]
Details: for IC50: curve of first compound; for viability, T/C: stronger effect = lower value
Method in brief: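 KRAS-mutant tumor cells were grown as spheroids with HUVEC endothelial cells and human MSCs as stroma. Targeted agents were tested alone and with KRAS pathway inhibitors. Doses started at or near clinical Cmax, or 10 microM, descending half-log.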

[1] = second compound 0.1 µM, first compound 0.000316 µM
[2] = second compound 0.1 µM, first compound 0.001 µM
[3] = second compound 0.1 µM, first compound 0.00316 µM
[4] = second compound 0.1 µM, first compound 0.01 µM
[5] = second compound 0.1 µM, first compound 0.0316 µM
[6] = second compound 0.1 µM, first compound 0.1 µM
[7] = second compound 0.316 µM, first compound 0.000316 µM
[8] = second compound 0.316 µM, first compound 0.001 µM
[9] = second compound 0.316 µM, first compound 0.00316 µM
[10] = second compound 0.316 µM, first compound 0.01 µM
[11] = second compound 0.316 µM, first compound 0.0316 µM
[12] = second compound 0.316 µM, first compound 0.1 µM
[13] = second compound 1 µM, first compound 0.000316 µM
[14] = second compound 1 µM, first compound 0.001 µM
[15] = second compound 1 µM, first compound 0.00316 µM
[16] = second compound 1 µM, first compound 0.01 µM
[17] = second compound 1 µM, first compound 0.0316 µM
[18] = second compound 1 µM, first compound 0.1 µM
[19] = second compound 3.16 µM, first compound 0.000316 µM
[20] = second compound 3.16 µM, first compound 0.001 µM
[21] = second compound 3.16 µM, first compound 0.00316 µM
[22] = second compound 3.16 µM, first compound 0.01 µM
[23] = second compound 3.16 µM, first compound 0.0316 µM
[24] = second compound 3.16 µM, first compound 0.1 µM
[25] = second compound 10 µM, first compound 0.000316 µM
[26] = second compound 10 µM, first compound 0.001 µM
[27] = second compound 10 µM, first compound 0.00316 µM
[28] = second compound 10 µM, first compound 0.01 µM
[29] = second compound 10 µM, first compound 0.0316 µM
[30] = second compound 10 µM, first compound 0.1 µM
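Further: compound exposure lasted 7 days before the readout.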
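Wherever viability, T/C is given: 100% = DMSO vehicle control viability.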

Compound	IC50 (second compound 0.1 µM)	IC50 (second compound 0.316 µM)	IC50 (second compound 1 µM)	IC50 (second compound 3.16 µM)	IC50 (second compound 10 µM)	viability, T/C [1]	viability, T/C [2]	viability, T/C [3]	viability, T/C [4]	viability, T/C [5]	viability, T/C [6]	viability, T/C [7]	viability, T/C [11]	viability, T/C [12]	viability, T/C [17]	viability, T/C [18]	viability, T/C [23]	viability, T/C [24]	viability, T/C [29]	viability, T/C [30]	further results
CC(C)n1nc(-c2ccc3oc(N)nc3c2)c2c(N)ncnc21 + COc1cc2nc(C)nc(NC(C)c3cc(N)cc(C(F)(F)F)c3)c2cc1OC1CCOC1	9.26 nM	7.45 nM	9.33 nM	6.56 nM	< 0.316 nM	109%	92.5%	69%	50.5%	31.1%	24.9%	108%	28.1%	24.2%	30.9%	23.9%	28.6%	23.6%	2.74%	1.79%	viability, T/C [8]: 91.7%; viability, T/C [9]: 77.3%; viability, T/C [10]: 39.1%; viability, T/C [13]: 84.5%; viability, T/C [14]: 101%; viability, T/C [15]: 65.9%; viability, T/C [16]: 51.7%; viability, T/C [19]: 79%; viability, T/C [20]: 75.8%; viability, T/C [21]: 63.7%; viability, T/C [22]: 41.9%; viability, T/C [25]: 1.37%; viability, T/C [26]: 1.1%; viability, T/C [27]: 6.43%; viability, T/C [28]: 3.9%
CC1(C)CCC(CN2CCN(c3ccc(C(=O)NS(=O)(=O)c4ccc(NCC5CCOCC5)c([N+](=O)[O-])c4)c(Oc4cnc5[nH]ccc5c4)c3)CC2)=C(c2ccc(Cl)cc2)C1 + COc1cc2nc(C)nc(NC(C)c3cc(N)cc(C(F)(F)F)c3)c2cc1OC1CCOC1	2100 nM	1950 nM	1820 nM	1650 nM	< 31.6 nM	–	–	–	–	89%	88.1%	–	86.2%	90.3%	76.5%	93.4%	61.9%	86.5%	0.9%	2.22%	viability, T/C (second compound 0.1 µM, first compound 0.316 µM): 90.1%; viability, T/C (second compound 0.1 µM, first compound 1 µM): 95.8%; viability, T/C (second compound 0.1 µM, first compound 3.16 µM): 27.7%; viability, T/C (second compound 0.1 µM, first compound 10 µM): 8.52%; viability, T/C (second compound 0.316 µM, first compound 0.316 µM): 84%; viability, T/C (second compound 0.316 µM, first compound 1 µM): 83%; viability, T/C (second compound 0.316 µM, first compound 3.16 µM): 26.3%; viability, T/C (second compound 0.316 µM, first compound 10 µM): 5.92%; viability, T/C (second compound 1 µM, first compound 0.316 µM): 76.1%; viability, T/C (second compound 1 µM, first compound 1 µM): 84.9%; viability, T/C (second compound 1 µM, first compound 3.16 µM): 19.6%; viability, T/C (second compound 1 µM, first compound 10 µM): 2.71%; viability, T/C (second compound 3.16 µM, first compound 0.316 µM): 60.2%; viability, T/C (second compound 3.16 µM, first compound 1 µM): 69.8%; viability, T/C (second compound 3.16 µM, first compound 3.16 µM): 24.3%; viability, T/C (second compound 3.16 µM, first compound 10 µM): 4.36%; viability, T/C (second compound 10 µM, first compound 0.316 µM): 0.8%; viability, T/C (second compound 10 µM, first compound 1 µM): 1.14%; viability, T/C (second compound 10 µM, first compound 3.16 µM): 2.02%; viability, T/C (second compound 10 µM, first compound 10 µM): 0.84%
Cn1ncnc1[C@H]1c2n[nH]c(=O)c3cc(F)cc(c23)N[C@@H]1c1ccc(F)cc1 + COc1cc2nc(C)nc(NC(C)c3cc(N)cc(C(F)(F)F)c3)c2cc1OC1CCOC1	> 100 nM	> 100 nM	> 100 nM	> 100 nM	< 0.316 nM	103%	88.5%	86.6%	107%	88.5%	74.4%	83.9%	92.4%	77.9%	83.4%	95.4%	63.5%	52.4%	0.75%	1.25%	viability, T/C [8]: 108%; viability, T/C [9]: 83.6%; viability, T/C [10]: 96.3%; viability, T/C [13]: 108%; viability, T/C [14]: 99.8%; viability, T/C [15]: 79.7%; viability, T/C [16]: 88.3%; viability, T/C [19]: 69.5%; viability, T/C [20]: 87%; viability, T/C [21]: 61.6%; viability, T/C [22]: 67.6%; viability, T/C [25]: 0.8%; viability, T/C [26]: 0.47%; viability, T/C [27]: 0.63%; viability, T/C [28]: 1.27%
